Test results reported in patent US20040116506A1, “Use of levetiracetam for treating or preventing acute headaches” (priority 2002, published 2004).

Columns and labels:
[1] = test system: recurrent migraine headaches; test: Oral levetiracetam as a prophylactic agent, small-scale open-label trial; format: in vivo; settings: chronic daily oral treatment, 250 to 750 mg tablets; substantial fraction of patients
Description: A limited number of patients who were being treated by the Applicant for recurrent migraine headaches were placed on a regimen of daily oral levetiracetam, in a small-scale open-label trial. […] In general, the recurrent migraine patients who were chosen for this type of experimental trial were those who had not responded adequately to various other known candidate treatments. Patients kept daily records of the frequency of their migraine headaches, and also kept logs that recorded the severity of each headache, on a subjective scale of 1 to 10, with 1 being mild, and 10 being extremely intense pain.

[2] = over a wide dose range; cited from earlier work
epileptic seizures = settings: taken chronically; patients who suffer from frequent seizures; cited from earlier work
[3] = test system: intractable migraine headache; test: Injectable (intravenous) levetiracetam for acute migraines, open-label study; format: in vivo, patients
Method: Sterile, preservative-free liquid preparations of levetiracetam, at concentrations of 200 mg/ml or 400 mg/ml, was prepared in a laminar flow hood by a compounding pharmacist. Particulate matter was filtered out through a series of filtrations and the solution was stabilized at a pH of 6.0. The resulting solution was clear. 29 patients were treated (19 female and 10 male), and a total of 42 intractable migraines were treated in this study. Their age range was 26 to 59 (mean age, 44 years). All patients had failed treatment with their usual migraine-specific or abortive therapies. Most patients (n=24) were in the second or third day of intractable migraine headache. 5 patients were treated on more than one occasion (1 patient was treated 6 separate times; 1 patient, 5 times, 1 patient, 3 times; and 2 patients, twice each). 6 patients (21%) were already on levetiracetam orally at the time of intravenous treatment. 23 were naive to levetiracetam at the time of treatment. Patients were treated in the setting of a headache clinic. An antecubital line was started and pulse oximetry monitoring was employed throughout treatment. No other medications were given orally or intravenously to treat the migraine. In a typical treatment for a first-time patient, a test dose of 400 mg levetiracetam was given, and then 400-600 mg was given every 5 minutes, until maximum effect was reported by the patient. The average dosage given intravenously was 5940 mg (range 400 to 16,000 mg). The average time to best response after treatment was 66 min (range=20-120 min). Prior to treatment, migraine severity (reported by each patient on a 0 to 10 numeric rating scale (NRS), with 10 representing the absolute worst possible pain) was 8.4. After treatment, it was 1.6, which represents a mean reduction of 81% in migraine severity. 16 patients (55%), representing 21 of 42 episodes, had complete resolution of their ongoing migraine, to a reported severity of zero. Only one patient had no reported response to the treatment.

Q: What does the source list for CC[C@@H](C(N)=O)N1CCCC1=O [levetiracetam]?
A: reduced frequency and/or reduced severity of migraine headaches [1]: substantial benefits; tolerability / toxicity [2]: well tolerated over a wide dose range with no apparent toxicity; reduction of the frequency of epileptic seizures (epileptic seizures): 15 to 30%; episodes with complete resolution of ongoing migraine ([3]; intravenous): 21 of 42 episodes; side effects ([3]; intravenous): minimal; time to best response after treatment, range ([3]; intravenous, 29 patients, 42 migraines): 20 to 120 min; mean reduction in migraine severity ([3]; intravenous, NRS 8.4 prior to treatment vs 1.6 after): 81%; average time to best response after treatment ([3]; intravenous, average dosage 5940 mg, 29 patients, 42 migraines): 66 min; time until side effects dissipated spontaneously ([3]; intravenous, nausea and drowsiness): 30 to 90 min; patients reporting drowsiness ([3]; intravenous, of 29 patients): 2 patients; patients reporting transient nausea ([3]; intravenous, of 29 patients): 3 patients; patients with complete resolution of ongoing migraine, to a reported severity of zero ([3]; intravenous, of 29 patients): 16 patients; patients with no reported response to the treatment ([3]; intravenous, of 29 patients): one; share of patients with complete resolution of ongoing migraine ([3]; intravenous, of 29 patients): 55%; migraine severity after treatment (0 to 10 numeric rating scale, NRS) ([3]; intravenous, severity prior to treatment was 8.4): 1.6; outcome in patient treated for a combination of cluster headaches and migraines ([3]; one patient): resolution of both
